The values that follow come from ChEMBL document CHEMBL2069200, “Synthesis and evaluation of 4-(substituted styryl/alkenyl)-3,5-bis(4-hydroxyphenyl)-isoxazoles as ligands for the estrogen receptor” (Bioorg Med Chem Lett, 2012).

This assay has as its target T1, Estrogen receptor (Homo sapiens) (UniProt P03372).
T1 sequence (whole entry): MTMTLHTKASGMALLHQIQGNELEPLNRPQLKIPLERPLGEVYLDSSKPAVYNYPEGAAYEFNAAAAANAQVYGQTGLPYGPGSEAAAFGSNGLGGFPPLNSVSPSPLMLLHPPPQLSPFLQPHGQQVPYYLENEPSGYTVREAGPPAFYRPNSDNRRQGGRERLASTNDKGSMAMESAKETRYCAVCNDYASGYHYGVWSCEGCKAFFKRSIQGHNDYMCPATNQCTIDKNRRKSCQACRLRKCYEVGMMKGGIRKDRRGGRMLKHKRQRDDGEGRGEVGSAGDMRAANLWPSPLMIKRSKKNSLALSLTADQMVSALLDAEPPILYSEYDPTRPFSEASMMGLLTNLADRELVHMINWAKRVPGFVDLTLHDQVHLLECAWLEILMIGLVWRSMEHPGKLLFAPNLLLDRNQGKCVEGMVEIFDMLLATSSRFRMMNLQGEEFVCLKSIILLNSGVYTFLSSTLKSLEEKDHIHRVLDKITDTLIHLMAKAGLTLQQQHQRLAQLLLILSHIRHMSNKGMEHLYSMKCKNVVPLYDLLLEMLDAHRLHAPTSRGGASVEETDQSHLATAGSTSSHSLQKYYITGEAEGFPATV
The experiment in a line: Displacement of [3H]-estradiol from human ERalpha LBD expressed in Escherichia coli assessed as relative binding affinity relative to estradiol. For orientation: Displacement assays read how much labelled ligand stays bound in the presence of the test substance.
On to `CC(C)(C)/C=C/c1c(-c2ccc(O)cc2)noc1-c1ccc(O)cc1`, for which the RBA was found to be 4.3%.
Consider `CCCCC/C=C/c1c(-c2ccc(O)cc2)noc1-c1ccc(O)cc1`, for which the RBA was found to be 1.8%.
In the case of `CCCCCCC/C=C/c1c(-c2ccc(O)cc2)noc1-c1ccc(O)cc1` it was 1.3%; in that of `CCCCCC/C=C/c1c(-c2ccc(O)cc2)noc1-c1ccc(O)cc1`, 2.5%.
Consider `CCc1c(-c2ccc(O)cc2)nn(-c2ccc(O)cc2)c1-c1ccc(O)cc1`, for which the RBA came out at 36%.
In the case of `Oc1ccc(-c2noc(-c3ccc(O)cc3)c2/C=C\c2ccccc2)cc1` it was 8.7%.
On to `Oc1ccc(/C=C/c2c(-c3ccc(O)cc3)noc2-c2ccc(O)cc2)cc1`, for which the RBA was 16.4%.
Turning to `Oc1ccc(-c2noc(-c3ccc(O)cc3)c2/C=C/c2ccc(Cl)cc2)cc1`, the RBA amounted to 0.8%.
On to `Oc1ccc(-c2noc(-c3ccc(O)cc3)c2/C=C/c2ccccc2)cc1`, for which the RBA is 3.5%.
As for `Oc1ccc(-c2noc(-c3ccc(O)cc3)c2/C=C/c2cccc(C(F)(F)F)c2)cc1`, the figure is 1.5%.
In the case of `Oc1ccc(-c2noc(-c3ccc(O)cc3)c2/C=C/c2ccc(F)cc2)cc1` it was 3.1%; in that of `Cc1ccc(/C=C/c2c(-c3ccc(O)cc3)noc2-c2ccc(O)cc2)cc1`, 0.6%; in that of `Oc1ccc(-c2noc(-c3ccc(O)cc3)c2/C=C/c2cccc(O)c2)cc1`, 8.7%.
As for `Oc1ccc(-c2noc(-c3ccc(O)cc3)c2/C=C/c2ccc(C(F)(F)F)cc2)cc1`, the RBA came to 5.3%.
Consider `Oc1ccc(-c2noc(-c3ccc(O)cc3)c2-c2ccc(O)cc2)cc1`, for which the RBA amounted to 30%.
